This note sets out measurements from ChEMBL document CHEMBL1125671, “Synthesis and antiviral activity of enantiomeric forms of cyclobutyl nucleoside analogues” (1991).

The structures appear in SMILES notation. Bounds are passed on as bounds.

Format in all cases: functional
For one experiment, the system named is Human betaherpesvirus 5. Description: compound was tested for antiherpes activity against HCMV(AD 169) in tissue culture by plaque reduction assay. The note with it: read-out: ID50 (the source's name).
The subject of another experiment is Human alphaherpesvirus 1. Briefly: compound was tested for antiherpes activity against HSV-1(Schooler) in tissue culture by plaque reduction assay. The note with it: read-out: ID50 (the source's name).
In the next experiment the test system is Human alphaherpesvirus 2. Briefly: compound was tested for antiherpes activity against HSV-2(186) in tissue culture by plaque reduction assay. The conditions noted are these: read-out: ID50 (the source's name).
For a further experiment, the system named is Murid betaherpesvirus 1. Briefly: compound was tested for antiherpes activity against MCMV(Smith) in tissue culture by plaque reduction assay. The conditions noted are these: read-out: ID50 (the source's name). For orientation: In a plaque reduction assay, fewer plaques than in the control indicate reduced infectivity or spread.
Experiment [1] deals with Mus musculus. Description: subcutaneous efficacy of compound in a lethal MCMV infection on mouse. The note with it: sc, read-out: PD50.
The subject of experiment [2] is Mus musculus. Briefly: Mean day of death for total no. of dead mouse at 12.5 mg/kg/day dose.
Experiment [3] deals with Mus musculus. Briefly: Mean day of death for total no. of dead mouse at 25 mg/kg/day dose.
In experiment [4] the test system is Mus musculus. Description: Mean day of death for total no. of dead mouse at 50 mg/kg/day dose.
Experiment [5] deals with Mus musculus. Description: Subcutaneous efficacy in a mouse cytomegalovirus infection at 100 mg/kg/day dose; Value expressed as survivors/total tested = 10/10.
In experiment [6] the test system is Mus musculus. Description: Subcutaneous efficacy in a mouse cytomegalovirus infection at 12.5 mg/kg/day dose; Value expressed as survivors/total tested = 5/10.
Experiment [7] has as its system Mus musculus. Description: Subcutaneous efficacy in a mouse cytomegalovirus infection at 25 mg/kg/day dose; Value expressed as survivors/total tested = 9/10.
Experiment [8] relates to Mus musculus. Description: Subcutaneous efficacy in a mouse cytomegalovirus infection at 50 mg/kg/day; Value expressed as survivors/total tested = 9/10.
The subject of the next experiment is Human alphaherpesvirus 3. Description: compound was tested for antiherpes activity against VZV(Ellen) in tissue culture by plaque reduction assay. The note with it: read-out: ID50 (the source's name).
Experiment [9] relates to Mus musculus. Description: Mean day of death for total no. of dead mouse at 12.5 mg/kg/day dosep<0.05.
Experiment [10] deals with Mus musculus. Description: Mean day of death for total no. of dead mouse at 6.3 mg/kg/day dose.
The subject of experiment [11] is Mus musculus. Description: Subcutaneous efficacy in a mouse cytomegalovirus infection at 12.5 mg/kg/day dose; Value expressed as survivors/total tested = 4/10.
In experiment [12] the test system is Mus musculus. Briefly: Subcutaneous efficacy in a mouse cytomegalovirus infection at 25 mg/kg/day dose; Value expressed as survivors/total tested = 10/10.
The test system of experiment [13] is Mus musculus. Briefly: Subcutaneous efficacy in a mouse cytomegalovirus infection at 50 mg/kg/day dose; Value expressed as survivors/total tested = 10/10.
In experiment [14] the test system is Mus musculus. Description: Subcutaneous efficacy in a mouse cytomegalovirus infection at 6.3 mg/kg/day dose; Value expressed as survivors/total tested = 4/10.
Experiment [15] deals with Mus musculus. Briefly: oral efficacy in a mouse cytomegalovirus infection at 100 mg/kg/day dose; Value expressed as survivors/total tested = 10/10.
Experiment [16] concerns Mus musculus. Description: oral efficacy in a mouse cytomegalovirus infection at 12.5 mg/kg/day dose; Value expressed as survivors/total tested = 1/10.
Experiment [17] has as its system Mus musculus. Briefly: oral efficacy in a mouse cytomegalovirus infection at 50 mg/kg/day dose; Value expressed as survivors/total tested = 6/10.
Experiment [18] has as its system Mus musculus. Briefly: oral efficacy in a mouse cytomegalovirus infection at 25 mg/kg/day dose; Value expressed as survivors/total tested = 3/10.
Experiment [19] relates to Mus musculus. Briefly: Mean day of death for total no. of dead mouse at 25 mg/kg/day dosep<0.05.
Experiment [20] concerns Mus musculus. Description: Subcutaneous efficacy in a mouse cytomegalovirus infection at 12.5 mg/kg/day dose; Value expressed as survivors/total tested = 7/10.
The subject of experiment [21] is Mus musculus. Description: oral efficacy in a mouse cytomegalovirus infection at 25 mg/kg/day dose; Value expressed as survivors/total tested = 1/10.
Experiment [22] relates to Mus musculus. Description: oral efficacy in a mouse cytomegalovirus infection at 50 mg/kg/day dose; Value expressed as survivors/total tested = 5/10.

In the case of `Nc1nc(O)c2ncn(C3C[C@@H](CO)[C@@H]3CO)c2n1` (stereo partly specified), the IC50 with Human betaherpesvirus 5 was determined as 800 nM; in the experiment with Human alphaherpesvirus 1, 20 nM; with Human alphaherpesvirus 2, 20 nM; in the experiment with Murid betaherpesvirus 1, 200 nM; in the experiment with Human alphaherpesvirus 3 it was 20 nM. Further, the ED50 in the experiment on Mus musculus [1] was 10 mg/kg/day. Besides, the “Mean day of death for total dead” value is given as 5.4 with Mus musculus [2], 4 in the experiment with Mus musculus [3] and 6 in the experiment on Mus musculus [4]. The Survivors alive/total is recorded as 10 with Mus musculus [5], 5 with Mus musculus [6], 9 in the experiment with Mus musculus [7] and 9 in the experiment with Mus musculus [8].
Turning to `Nc1ncnc2c1ncn2C1C[C@H](CO)C1CO` (stereo partly specified), the IC50 in the experiment with Human betaherpesvirus 5, in the experiment on Human alphaherpesvirus 1, in the experiment on Human alphaherpesvirus 2 and with Human alphaherpesvirus 3 was over 400000 nM each time.
As to `Nc1ncnc2c1ncn2C1C[C@@H](CO)[C@@H]1CO` (stereo partly specified), the IC50 was under 400 nM in the experiment on Human betaherpesvirus 5; 2000 nM in the experiment with Human alphaherpesvirus 1; 2000 nM in the experiment with Human alphaherpesvirus 2; 800 nM in the experiment on Murid betaherpesvirus 1; 2000 nM with Human alphaherpesvirus 3. Besides, the “Mean day of death for total dead” value in the experiment with Mus musculus [2] is given as 3.9; with Mus musculus [9], 8.8; in the experiment with Mus musculus [3], 3.6; in the experiment on Mus musculus [4], 6.3; in the experiment with Mus musculus [10], 4.4. In addition, the Survivors alive/total was found to be 10 in the experiment on Mus musculus [5]; 4 with Mus musculus [11]; 10 in the experiment with Mus musculus [12]; 10 in the experiment on Mus musculus [13]; 4 with Mus musculus [14]; 10 in the experiment with Mus musculus [15]. For the same molecule, the results for the Survivors alive/total in the experiment on Mus musculus [16], in the experiment with Mus musculus [17] and in the experiment on Mus musculus [18] were 1, 6 and 3, respectively.
As to `Nc1ncnc2c1ncn2C1CC(CO)C1CO` (stereo unspecified), the IC50 amounted to 800 nM with Human betaherpesvirus 5; 8000 nM with Human alphaherpesvirus 1; 8000 nM with Human alphaherpesvirus 2; 2000 nM in the experiment with Murid betaherpesvirus 1; 2000 nM in the experiment with Human alphaherpesvirus 3.
As to `Nc1nc(O)c2ncn(C3CC(CO)C3CO)c2n1` (stereo unspecified), the IC50 came out at 4000 nM with Human betaherpesvirus 5; 80 nM in the experiment with Human alphaherpesvirus 1; 40 nM in the experiment with Human alphaherpesvirus 2; 2000 nM with Murid betaherpesvirus 1; 200 nM in the experiment with Human alphaherpesvirus 3.
Take `Nc1nc(O)c2ncn([C@H]3CC(CO)[C@@H]3CO)c2n1` (single isomer, unassigned): the IC50 in the experiment on Human betaherpesvirus 5, in the experiment with Human alphaherpesvirus 1, in the experiment with Human alphaherpesvirus 2 and in the experiment on Human alphaherpesvirus 3 was over 377000 nM throughout.
With `Nc1nc2c(ncn2COC(CO)CO)c(=O)[nH]1` [GANCICLOVIR], the IC50 in the experiment on Human betaherpesvirus 5 was found to be 2000 nM; in the experiment on Human alphaherpesvirus 1, 40 nM; in the experiment on Human alphaherpesvirus 2, 40 nM; in the experiment on Murid betaherpesvirus 1, 4000 nM; with Human alphaherpesvirus 3, 2000 nM. For the same molecule, the “Mean day of death for total dead” value with Mus musculus [2] is listed as 3.6; in the experiment with Mus musculus [9], 5.7; with Mus musculus [19] it was 4.8; with Mus musculus [4] it was 4.4. Further, the Survivors alive/total amounted to 10 with Mus musculus [5]; 7 in the experiment with Mus musculus [20]; 10 in the experiment with Mus musculus [12]; 10 with Mus musculus [13]; 1 in the experiment with Mus musculus [16]; 1 in the experiment on Mus musculus [21]. For the same molecule, the Survivors alive/total in the experiment on Mus musculus [22] came out at 5.
